What was measured:
Assay type in all cases: cell-based
IFN-α = assay: Induction of Interferon-α using fresh human PBMCs; conditions: PBMC, two donors, 24 hours incubation, percentage of 2 μM resiquimod control, read-out: pEC50 for induction of IFN-α (converted)
Description: (§1) Assay for the Induction of Interferon-α and TNF-α using Fresh Human Peripheral Blood Mononuclear Cells (PBMCs)
(§2) Compounds were dissolved and serially diluted in DMSO to give 100× the required concentration range using a Biomek 2000. 1 μL of test compound was transferred into 96-well tissue culture plates using a Biomek FX. Each compound was assayed in duplicate for each donor. Each plate contained a dilution series of the TLR7/8 agonist resiquimod as standard and Column 11 contained 1 μL of 200 μM resiquimod (giving a 2 μM final concentration, used to define the approximate maximal response to resiquimod).
(§3) Blood samples from two human donors were collected into sodium heparin (10 U/mL). 25 mL volumes of whole blood were overlaid onto 15 mL Histopaque in Leucosep tubes which were centrifuged at 800 g for 20 min and the band at the plasma/histopaque interface carefully removed. The collected cells were centrifuged at 2500 rpm for 10 min and the pellet resuspended in 10 mL of media (RPMI 1640 (Low endotoxin) supplemented with 10% v/v foetal calf serum (FCS, low endotoxin) 100 U/mL penicillin G, 100 μg/mL streptomycin, 10 mM L-glutamine and 1× non-essential amino acids). A 1:20 dilution of the cells was prepared using trypan blue and the cells counted using a haemocytometer. The PBMCs were diluted to give a final concentration of 2×10^6/mL and 100 μL of this cells suspension was added to wells containing 1 μL of diluted test compound.
(§4) Incubation and Assays for Interferon-α and TNF-α
(§5) The cell preparations were incubated for 24 hours (37° C., 95% air, 5% CO2) after which a sample of the supernatant was removed using the Biomek FX and assayed for both IFN-α and TNF-α using the MSD (Mesoscale Discovery) electrochemiluminescence assay platform. The IFN-α assay was carried out similarly to that described above. […]
(§6) Cytokine released was expressed as a percentage of the 2 μM resiquimod control (column 11). This percentage was plotted against compound concentration and the pEC50 for the response determined by non-linear least squares curve fitting. […]

Interferon-α = assay: Induction of Interferon-α using cryopreserved human PBMCs; conditions: PBMC, 24 hours incubation, normalised to 1 μM resiquimod and DMSO, read-out: mean pEC50 for induction of Interferon-α (converted)
Description: Assay for the Induction of Interferon-α using Cryopreserved Human Peripheral Blood Mononuclear Cells (PBMCs)
Compounds were dissolved in DMSO. Serial 2-fold dilutions with DMSO were prepared and 0.25 μL dispensed into 384-well clear Greiner polypropylene plates.
Blood samples of up to 200 mL were obtained from healthy human donors. Whole blood in 25 mL volumes was overlaid onto 15 mL Ficoll gradients in Leucosep tubes, and centrifuged at 1000 g for 20 minutes. Cells in the band at the plasma/histopaque interface were carefully removed and washed twice with PBS (centrifuged at 400 g for 5 min to harvest). The final pellet was resuspended in freezing medium (90% Heat-inactivated serum, 10% DMSO) to a cell concentration of 4×10^7 cells/mL. The resuspended cells were then cryopreserved (frozen) using a rate controlled freezer, and stored at −140° C. for up to 4 months.
Incubation and Assay for Interferon-α
Immediately prior to assay, vials of cryopreserved (frozen) PBMCs were thawed rapidly in a water bath at 37° C. A 1:10 dilution of the cells in trypan blue was prepared and counted. The PBMCs were then diluted in growth media [RPMI 1640 containing 10% fetal calf serum (invitrogen), Penicillin+[…] (Gibco cat. #25030-024, 1:50), L-Glutamine 2 mM, and 1000 units/mL recombinant human IFN-gamma (Preprotech catalogue #300-02)] to a density of 1×10^6 cells/mL, and 50 uL/well dispensed to 384-well clear Greiner polypropylene plates containing 0.25 μL DMSO or test compound in 0.25 μL DMSO. […] Plates were incubated for 24 hours at 37° C. in 5% CO2.
A multi-isoform immunoassay was used to quantify IFN-α in PBMC supernatants. Rabbit polyclonal antibody against human IFN-α (catalogue number 31101, Stratech Scientific) was diluted 1:10000 in assay buffer (RPMI 1640 containing 10% fetal calf serum, Invitrogen) and 20 μL was added to each well of an MSD (Meso-Scale Discovery) single small-spot 384-well GAR (goat anti-rabbit antibody coated) plate. The plate was incubated for 1 hour at room temperature with vigorous shaking. Following three washes with PBS, 20 μL of cell supernatant were added to each well of the plate. The plate was then incubated for 1 hour at room temperature with vigorous shaking. A pair of monoclonal antibodies to IFN-α (catalogue numbers 21100 and 21112, Stratech Scientific) were labelled with sulfo-TAG (MSD), diluted 1:1000 in assay buffer and 20 μL added to each well of the plate. The plate was further incubated for 1 hour at room temperature with vigorous shaking. Following three washes with PBS, 30 μL of ×2 T buffer (MSD) was added to each well and the plate was read on an MSD Sector 6000 plate reader.
Data were normalised to internal plate controls of 1 μM resiquimod (n=16) and DMSO (n=16). pEC50 values were derived by 4-parameter curve fit with IRLS in ActivityBase, from 11-point, two-fold serial dilution of test compounds.

TNF-α = assay: Induction of TNF-α using fresh human PBMCs; conditions: PBMC, two donors, 24 hours incubation, percentage of 2 μM resiquimod control, read-out: pEC50 for induction of TNF-α (converted)
Description: as §1, §2, §3, §4, §5, §6

Row | Structure (SMILES) | EC50 (IFN-α) [µM] | EC50 (Interferon-α) [µM] | EC50 (TNF-α) [µM]
1 | CCCCOc1nc(N)c2[nH]c(=O)n(CC3CCCN(CCO)C3)c2n1 (centres unmarked) [Example 2, 6-Amino-2-(butyloxy)-9-{[1-(2-hydroxyethyl)-3-piperidinyl]methyl}-7,9-dihydro-8H-purin-8-one] | 0.0631 | < 1.58 | 15.8
2 | CCCCOc1nc(N)c2[nH]c(=O)n(CC3CCN(CCO)CC3)c2n1 [Example 6, 6-Amino-2-(butyloxy)-9-{[1-(2-hydroxyethyl)-4-piperidinyl]methyl}-7,9-dihydro-8H-purin-8-one] |  | < 1.58 | 
3 | CCCCOc1nc(N)c2[nH]c(=O)n(CCCCN3CCN(CCO)CC3)c2n1 [Example 13, 6-Amino-2-(butyloxy)-9-{4-[4-(2-hydroxyethyl)-1-piperazinyl]butyl}-7,9-dihydro-8H-purin-8-one] |  | < 1.58 | 
4 | CCCCOc1nc(N)c2[nH]c(=O)n(CCCCC3CCN(CCO)CC3)c2n1 [Example 9, 6-Amino-2-(butyloxy)-9-{4-[1-(2-hydroxyethyl)-4-piperidinyl]butyl}-7,9-dihydro-8H-purin-8-one] |  | < 1.58 | 
5 | CCCCOc1nc(N)c2[nH]c(=O)n(CCCC3CCN(CCO)CC3)c2n1 [Example 8, 6-Amino-2-(butyloxy)-9-{3-[1-(2-hydroxyethyl)-4-piperidinyl]propyl}-7,9-dihydro-8H-purin-8-one] |  | < 1.58 | 
6 | CCCCOc1nc(N)c2[nH]c(=O)n(CCCC3CCCCN3CCO)c2n1 (centres unmarked) [Example 1, 6-Amino-2-(butyloxy)-9-[3-[1-(2-hydroxyethyl)-2-piperidinyl]propyl]-7,9-dihydro-8H-purin-8-one] |  | < 1.58 | 
7 | CCCCNc1nc(N)c2[nH]c(=O)n(CCCN3CCN(CCO)CC3)c2n1 [Example 12, 6-Amino-2-(butylamino)-9-[3-[4-(2-hydroxyethyl)-1-piperazinyl]propyl]-7,9-dihydro-8H-purin-8-one] |  | < 1.58 | 
8 | CCCCOc1nc(N)c2[nH]c(=O)n(CCCCCN3CCN(CCOC)CC3)c2n1 [Example 16, 6-Amino-2-(butyloxy)-9-(5-{4-[2-(methyloxy)ethyl]-1-piperazinyl}pentyl)-7,9-dihydro-8H-purin-8-one] |  | < 1.58 | 
9 | CCCCOc1nc(N)c2[nH]c(=O)n(CCCN3CCN(CCO)CC3)c2n1 [Example 11, 6-Amino-2-(butyloxy)-9-{3-[4-(2-hydroxyethyl)-1-piperazinyl]propyl}-7,9-dihydro-8H-purin-8-one] |  | < 1.58 | 
10 | CCCCOc1nc(N)c2[nH]c(=O)n(CCCCC3CCCN(CCO)C3)c2n1 (centres unmarked) [Example 5, 6-Amino-2-(butyloxy)-9-{4-[1-(2-hydroxyethyl)-3-piperidinyl]butyl}-7,9-dihydro-8H-purin-8-one] |  | < 1.58 | 
11 | CCCCOc1nc(N)c2[nH]c(=O)n(CCC3CCN(CCO)CC3)c2n1 [Example 7, 6-Amino-2-(butyloxy)-9-{2-[1-(2-hydroxyethyl)-4-piperidinyl]ethyl}-7,9-dihydro-8H-purin-8-one] |  | < 1.58 | 
12 | CCCCOc1nc(N)c2[nH]c(=O)n(CCCCCN3CCN(CCOCC)CC3)c2n1 [Example 17, 6-Amino-2-(butyloxy)-9-(5-{4-[2-(ethyloxy)ethyl]-1-piperazinyl}pentyl)-7,9-dihydro-8H-purin-8-one] | 0.0158 | < 1.58 | 5.01
13 | CCCCOc1nc(N)c2[nH]c(=O)n(CCC3CCCN(CCO)C3)c2n1 (centres unmarked) [Example 3, 6-Amino-2-(butyloxy)-9-{2-[1-(2-hydroxyethyl)-3-piperidinyl]ethyl}-7,9-dihydro-8H-purin-8-one] |  | < 1.58 | 
14 | CCCCOc1nc(N)c2[nH]c(=O)n(CCCCCN3CCN(CCO)CC3)c2n1 [Example 15, 6-Amino-2-(butyloxy)-9-{5-[4-(2-hydroxyethyl)-1-piperazinyl]pentyl}-7,9-dihydro-8H-purin-8-one] |  | < 1.58 | 
15 | CCCCNc1nc(N)c2[nH]c(=O)n(CCCCN3CCN(CCO)CC3)c2n1 [Example 14, 6-Amino-2-(butylamino)-9-{4-[4-(2-hydroxyethyl)-1-piperazinyl]butyl}-7,9-dihydro-8H-purin-8-one] |  | < 1.58 | 
16 | CCCCOc1nc(N)c2[nH]c(=O)n(CCCCCC3CCN(CCO)CC3)c2n1 [Example 10, 6-Amino-2-(butyloxy)-9-{5-[1-(2-hydroxyethyl)-4-piperidinyl]pentyl}-7,9-dihydro-8H-purin-8-one] | 0.000501 | < 1.58 | 3.16
17 | CCCCOc1nc(N)c2[nH]c(=O)n(CCCC3CCCN(CCO)C3)c2n1 (centres unmarked) [Example 4, 6-Amino-2-(butyloxy)-9-{3-[1-(2-hydroxyethyl)-3-piperidinyl]propyl}-7,9-dihydro-8H-purin-8-one] |  | < 1.58 | 

— patent publication US8575340B2, “Purine derivatives and their pharmaceutical uses” (GlaxoSmithKline LLC, priority 2010, dated 2013)
